Reference: patent US20250353852A1, “COMPOUNDS AND COMPOSITIONS THAT INHIBIT PIKFYVE” (Kineta, Inc., priority 2021, published 2025)

Tested on: PIKFYVE TDP-43 yeast strain
Experiment: Propidium iodide viability assay, PIKFYVE TDP-43 yeast strain
Type: cell-based
Conditions: Saccharomyces cerevisiae; PIKFYVE TDP-43 yeast strain, values plotted in FIG. 7
Description: Generation of TDP-43 yeast model expressing human PIKfyve. Human PIKFYVE (“entry clone”) was cloned into […] (“destination vector”) according to standard Gateway cloning protocols (Invitrogen, Life Technologies). The resulting pAG416GPD-PIKFYVE plasmids were amplified in E. coli and plasmid identity confirmed by restriction digest and Sanger sequencing. […]+) (FIG. 2). Transformed yeast were plated on solid agar plates with complete synthetic media lacking uracil (CSM-ura) and containing 2% glucose. Individual colonies harboring the control or PIKFYVE TDP-43 plasmids were recovered. A plasmid containing wild-type TDP-43 under the transcriptional control of the GAL1 promoter and containing the […] as a selectable marker was transformed into the […]-PIKFYVE yeast strain (FIG. 1). Transformed yeast were plated on CSM-ura containing 2% glucose and 200 μg/mL G418 after overnight recovery in media lacking antibiotic. Multiple independent isolates were further evaluated for cytotoxicity and TDP-43 expression levels. Viability Assay. A control yeast strain with the wild-type yeast FAB1 gene and TDP-43 (“FAB1 TDP-43”, carries empty pAG416 plasmid), and the “PIKFYVE TDP-43” yeast strain, were assessed for toxicity using a propidium iodide viability assay. Both yeast strains were transferred from solid CSM-ura/2% glucose agar plates into 3 mL of liquid CSM-ura/2% glucose media for 6-8 hours at 30° C. with aeration. Yeast cultures were then diluted to an optical density at 600 nm wavelength (OD600) of 0.005 in 3 mL of CSM-ura/2% raffinose and grown overnight at 30° C. with aeration to an OD600 of 0.3-0.8. Log-phase overnight cultures were diluted to OD600 of 0.005 in CSM-ura containing either 2% raffinose or galactose and 150 μL dispensed into each well of a flat bottom 96-well plates. Compounds formulated in 100% dimethyl sulfoxide (DMSO) were serially diluted in DMSO and 1.5 μL diluted compound transferred to the 96-well plates using a multichannel pipet. Wells containing DMSO alone were also evaluated as controls for compound effects. Tested concentrations ranged from 15 μM to 0.11 μM. Cultures were immediately mixed to ensure compound distribution and covered plates incubated at 30° C. for 24 hours in a stationary, humified incubator. Upon the completion of incubation, cultures were assayed for viability using propidium iodide (PI) to stain for dead/dying cells. A working solution of PI was made where, for each plate, 1 μL of 10 mM PI was added to 10 mL of CSM-ura (raffinose or galactose). […] The overnight 96-well assay plate was then mixed with a multichannel pipet and 50 μL transferred to the PI-containing plate. This plate was then incubated for 30 minutes at 30° C. in the dark. A benchtop flow cytometer (Miltenyi MACSquant) was then used to assess red fluorescence (B2 channel), forward scatter, and side scatter (with following settings: gentle mix, high flow rate, fast measurement, 10,000 events). Intensity histograms were then gated for “PI-positive” or “PI-negative” using the raffinose and galactose cultures treated with DMSO as controls. The DMSO controls for raffinose or galactose-containing cultures were used to determine the window of increased cell death and this difference set to 100. All compounds were similarly gated and then compared to this maximal window to establish the percent reduction in PI-positive cells.

Going from Cc1cccc(/C=N/Nc2cc(N3CCOCC3)nc(OCCc3ccc(CN)cc3)n2)c1 to Cc1cccc(/C=N/Nc2nc(N3CCOCC3)c3ncccc3n2)c1, the IC50 rises from 1120 nM to 8210 nM (7.3-fold). The first is the more potent here.

First: c1ccc(-c2cccc(-c3cc(N4CCOCC4)n4nc(-c5ccncc5)cc4n3)n2)cc1
Second: Oc1cc(-c2ccccc2)nn1-c1cc(N2CCOCC2)n2nc(-c3ccncc3)nc2n1
The IC50 of the first is 3-fold lower: 230 nM for the first, 693 nM for the second.

First: c1ccc(-c2ccnc(-c3cc(N4CCOCC4)nc(OCc4ccncc4)n3)n2)cc1
Second: c1ccc(N2CCc3c(OCc4cccnc4)nc(N4CCOCC4)nc32)cc1
The IC50 of the first is 1.8-fold lower: 1450 nM for the first, 2680 nM for the second. The first is the more potent here.

Fc1cccc(-c2ccnn2-c2nc(N3CCOCC3)c3ncccc3n2)c1 and Cc1cccc(/C=N/Nc2nc(N3CCOCC3)c3nc(-c4ccncc4)n(C)c3n2)c1 [drawing 343] are within 1.5-fold of each other in IC50: 5750 nM for the first, 4720 nM for the second.

For Oc1cc(C2CCOCC2)nn1-c1cc(N2CCOCC2)n2nc(-c3ccncc3)cc2n1 [drawing 345], the IC50 was 9100 nM.

Tested on: U2OS cells
Experiment: EEA1 assay (endosomal vesicle enlargement as surrogate readout of PIKFyve inhibition)
Type: cell-based
Conditions: 3 hours of treatment, class symbols
Description: EEA1 Assay. Genetic or pharmacological disruption of PIKfyve activity results in enlargement of endosomal vesicles. This enlargement was utilized as a surrogate readout of PIKFyve inhibition for routine triage of PIKfyve inhibitors. U2OS cells grown in 96-well assay plates were treated with compound diluted in DMEM media containing 10% fetal bovine serum. After 3 hours of treatment, cells were fixed with paraformaldehyde, permeabilized with 0.2% Triton-X in phosphate buffered saline and stained against EEA1. During the secondary antibody staining, cells were also stained with CellMask DeepRed and Hoechst to detect cytoplasms and nuclei respectively. Endosomal structures were visualized using a high content imager at 40× magnification. Images were analyzed using a linear classifier algorithm integrating EEA1 spot size, intensity and texture trained on images of cells treated with the potent reference compound APY0201. Compound activity was calculated by subtracting the DMSO signal and calculating percentage activity relative to maximal APY0201 activity. IC50s were then calculated from concentration vs. % inhibition data by logistic regression.

COc1nn(-c2cc(N3CCOCC3)n3nccc3n2)cc1-c1ccccc1 [Compound 77, 4-(5-(3-methoxy-4-phenyl-1H-pyrazol-1-yl)pyrazolo[1,5-a]pyrimidin-7-yl)morpholine] was tested, and the IC50 was 1000 to 10000 nM.

Same assay, conditions: Homo sapiens, 3 hours of treatment, class symbols

First: Oc1cc(-c2ccccc2)nn1-c1cc(N2CCOCC2)n2nc(-c3ccncc3)cc2n1 [Compound 51, 1-(7-morpholino-2-(pyridin-4-yl)pyrazolo[1,5-a]pyrimidin-5-yl)-3-phenyl-1H-pyrazol-5-ol]
Second: Cc1cccc(-c2ccn(-c3cc(N4CCOCC4)n4nc(-c5ccncc5)cc4n3)n2)c1 [Compound 65, 4-(2-(pyridin-4-yl)-5-(3-(m-tolyl)-1H-pyrazol-1-yl)pyrazolo[1,5-a]pyrimidin-7-yl)morpholine]
The IC50 of the first is higher: 1000 to 10000 nM for the first, 100 to 1000 nM for the second.

COc1cccc(-c2ccn(-c3cc(N4CCOCC4)n4nc(-c5ccncc5)cc4n3)n2)c1 [Compound 71, 4-(5-(3-(3-methoxyphenyl)-1H-pyrazol-1-yl)-2-(pyridin-4-yl)pyrazolo[1,5-a]pyrimidin-7-yl)morpholine] and Cc1cccc(-c2ccn(-c3cc(N4CCOCC4)n4nc(-c5cccnc5)cc4n3)n2)c1 [Compound 79] fall in the same range of IC50: 100 to 1000 nM for the first, 100 to 1000 nM for the second.

Cc1cccc(-c2ccn(-c3cc(N4CCOCC4)n4nccc4n3)n2)c1 [Compound 78, 4-(5-(3-(m-tolyl)-1H-pyrazol-1-yl)pyrazolo[1,5-a]pyrimidin-7-yl)morpholine] and Cc1cccc(-c2ccn(-c3cc(N4CCOCC4)n4nc(C(O)CO)cc4n3)n2)c1 (stereo not shown) [Compound 150, 1-(7-morpholino-5-(3-(m-tolyl)-1H-pyrazol-1-yl)pyrazolo[1,5-a]pyrimidin-2-yl)ethane-1,2-diol] fall in the same range of IC50: 1000 to 10000 nM for the first, 1000 to 10000 nM for the second.

Compared with COc1nn(-c2cc(N3CCOCC3)n3nc(C(O)CO)cc3n2)cc1-c1ccccc1 (stereo not shown) [Compound 145, 1-(5-(3-methoxy-4-phenyl-1H-pyrazol-1-yl)-7-morpholinopyrazolo[1,5-a]pyrimidin-2-yl)ethane-1,2-diol], Cc1cccc(-c2ccn(-c3cc(N4CCOCC4)n4nc(CCC(=O)N(C)C)cc4n3)n2)c1 [Compound 149, N,N-dimethyl-3-(7-morpholino-5-(3-(m-tolyl)-1H-pyrazol-1-yl)pyrazolo[1,5-a]pyrimidin-2-yl)propanamide] is lower in IC50: 1000 to 10000 nM for the first, 100 to 1000 nM for the second.

Cc1cccc(-c2ccn(-c3cc(N4CCOCC4)n4nc(C5CCN(C)C(=O)C5)cc4n3)n2)c1 (stereo not shown) [Compound 151, 1-methyl-4-(7-morpholino-5-(3-(m-tolyl)-1H-pyrazol-1-yl)pyrazolo[1,5-a]pyrimidin-2-yl)piperidin-2-one] and Cn1ccc(-c2cccc(-c3cc(N4CCOCC4)n4nc(N5CCC(O)CC5)cc4n3)c2)n1 [Compound 152, 1-(5-(3-(1-methyl-1H-pyrazol-3-yl)phenyl)-7-morpholinopyrazolo[1,5-a]pyrimidin-2-yl)piperidin-4-ol] fall in the same range of IC50: 1000 to 10000 nM for the first, 1000 to 10000 nM for the second.

Same assay, conditions: Homo sapiens, 3 hours of treatment, numeric values

COc1nn(-c2cc(N3CCOCC3)n3nc(-c4ccncc4)cc3n2)cc1-c1ccccc1 [Compound 66, 4-(5-(3-methoxy-4-phenyl-1H-pyrazol-1-yl)-2-(pyridin-4-yl)pyrazolo[1,5-a]pyrimidin-7-yl)morpholine] gave an IC50 greater than 3000 nM.

Target: full-length human PIKFYVE (Homo sapiens (Human), UniProt Q9Y2I7, L932S/Q1183K/Q995L/S1033A/S696N/T998S)
Sequence (Q9Y2I7 whole entry S696N/L932S/Q995L/T998S/S1033A/Q1183K): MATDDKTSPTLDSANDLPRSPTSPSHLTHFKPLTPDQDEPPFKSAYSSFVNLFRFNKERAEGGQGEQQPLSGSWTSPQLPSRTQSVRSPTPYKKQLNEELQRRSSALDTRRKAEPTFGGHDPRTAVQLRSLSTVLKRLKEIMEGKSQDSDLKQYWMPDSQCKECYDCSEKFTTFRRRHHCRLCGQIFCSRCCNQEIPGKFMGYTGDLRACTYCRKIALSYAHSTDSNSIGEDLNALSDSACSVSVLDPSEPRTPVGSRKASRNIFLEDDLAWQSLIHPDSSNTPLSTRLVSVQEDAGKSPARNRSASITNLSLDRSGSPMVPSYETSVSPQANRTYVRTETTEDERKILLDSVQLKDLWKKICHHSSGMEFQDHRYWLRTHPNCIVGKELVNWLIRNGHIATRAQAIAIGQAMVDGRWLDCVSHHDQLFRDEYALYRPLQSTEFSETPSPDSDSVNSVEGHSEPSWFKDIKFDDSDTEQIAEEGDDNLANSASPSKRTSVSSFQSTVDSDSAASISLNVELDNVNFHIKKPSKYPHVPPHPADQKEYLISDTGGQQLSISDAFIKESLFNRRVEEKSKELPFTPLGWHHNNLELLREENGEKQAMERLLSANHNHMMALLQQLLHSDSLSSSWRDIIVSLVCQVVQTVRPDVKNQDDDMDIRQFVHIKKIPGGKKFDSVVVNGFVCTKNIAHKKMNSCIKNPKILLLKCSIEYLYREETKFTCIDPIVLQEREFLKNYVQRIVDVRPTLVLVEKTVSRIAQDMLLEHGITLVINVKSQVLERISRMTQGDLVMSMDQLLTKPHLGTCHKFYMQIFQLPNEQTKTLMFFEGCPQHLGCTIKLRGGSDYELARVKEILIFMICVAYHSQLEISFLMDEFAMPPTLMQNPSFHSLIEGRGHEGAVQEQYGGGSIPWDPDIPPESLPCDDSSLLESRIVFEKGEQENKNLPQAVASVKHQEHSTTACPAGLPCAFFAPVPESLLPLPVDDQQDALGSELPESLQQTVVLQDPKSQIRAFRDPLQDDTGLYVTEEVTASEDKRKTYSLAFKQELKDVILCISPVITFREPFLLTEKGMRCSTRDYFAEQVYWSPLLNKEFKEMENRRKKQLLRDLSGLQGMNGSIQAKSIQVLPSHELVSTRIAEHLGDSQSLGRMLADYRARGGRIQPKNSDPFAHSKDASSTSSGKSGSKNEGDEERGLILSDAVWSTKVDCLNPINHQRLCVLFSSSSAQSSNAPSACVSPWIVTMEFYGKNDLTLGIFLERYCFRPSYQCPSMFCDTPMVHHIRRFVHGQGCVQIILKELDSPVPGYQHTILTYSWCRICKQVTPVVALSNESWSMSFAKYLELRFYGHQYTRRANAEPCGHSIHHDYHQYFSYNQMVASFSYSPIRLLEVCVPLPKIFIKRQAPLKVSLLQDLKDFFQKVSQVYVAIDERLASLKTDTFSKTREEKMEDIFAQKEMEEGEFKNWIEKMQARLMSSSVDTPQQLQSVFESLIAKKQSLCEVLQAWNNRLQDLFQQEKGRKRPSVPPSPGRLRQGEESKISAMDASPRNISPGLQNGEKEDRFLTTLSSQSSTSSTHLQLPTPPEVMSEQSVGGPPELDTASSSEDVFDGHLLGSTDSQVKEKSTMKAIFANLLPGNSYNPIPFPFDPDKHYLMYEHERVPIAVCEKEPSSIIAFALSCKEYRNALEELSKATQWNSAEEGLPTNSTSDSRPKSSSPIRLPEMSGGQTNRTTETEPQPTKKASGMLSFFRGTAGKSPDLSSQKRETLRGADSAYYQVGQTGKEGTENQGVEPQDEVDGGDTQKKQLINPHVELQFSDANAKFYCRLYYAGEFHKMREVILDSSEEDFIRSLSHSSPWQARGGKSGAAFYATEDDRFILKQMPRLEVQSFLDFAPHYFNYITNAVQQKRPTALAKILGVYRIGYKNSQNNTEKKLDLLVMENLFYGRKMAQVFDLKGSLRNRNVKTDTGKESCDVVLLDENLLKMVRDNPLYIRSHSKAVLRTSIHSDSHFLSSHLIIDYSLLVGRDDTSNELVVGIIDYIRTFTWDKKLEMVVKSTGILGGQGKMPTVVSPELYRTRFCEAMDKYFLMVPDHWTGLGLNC
Experiment: PIKfyve biochemical assay (ADP-Glo Kinase assay, Carna Biosciences)
Conditions: class symbols
In short: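 N-terminal GST-fused full-length PIKFYVE from baculovirus, incubated with compound, substrate and ATP in 50 mM MOPS, 1 mM DTT, pH7.2 for 1 hour at room temperature. ADP formed detected by ADP-Glo luminescence; IC50 from four-parameter logistic fit of % inhibition.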

First: Oc1cc(-c2ccccc2)nn1-c1cc(N2CCOCC2)n2nc(-c3ccncc3)cc2n1 [Compound 51, 1-(7-morpholino-2-(pyridin-4-yl)pyrazolo[1,5-a]pyrimidin-5-yl)-3-phenyl-1H-pyrazol-5-ol]
Second: c1ccc(-c2ccn(-c3cc(N4CCOCC4)n4nc(-c5ccncc5)cc4n3)n2)cc1 [Compound 148]
The IC50 of the first is lower: less than 10 nM for the first, 10 to 100 nM for the second.

Cc1cccc(-c2ccn(-c3cc(N4CCOCC4)n4nc(-c5ccncc5)cc4n3)n2)c1 [Compound 65, 4-(2-(pyridin-4-yl)-5-(3-(m-tolyl)-1H-pyrazol-1-yl)pyrazolo[1,5-a]pyrimidin-7-yl)morpholine] and COc1cccc(-c2ccn(-c3cc(N4CCOCC4)n4nc(-c5ccncc5)cc4n3)n2)c1 [Compound 71, 4-(5-(3-(3-methoxyphenyl)-1H-pyrazol-1-yl)-2-(pyridin-4-yl)pyrazolo[1,5-a]pyrimidin-7-yl)morpholine] fall in the same range of IC50: 10 to 100 nM for the first, 10 to 100 nM for the second.

COc1nn(-c2cc(N3CCOCC3)n3nc(-c4ccncc4)cc3n2)cc1-c1ccccc1 [Compound 66, 4-(5-(3-methoxy-4-phenyl-1H-pyrazol-1-yl)-2-(pyridin-4-yl)pyrazolo[1,5-a]pyrimidin-7-yl)morpholine] and COc1nn(-c2cc(N3CCOCC3)n3nccc3n2)cc1-c1ccccc1 [Compound 77, 4-(5-(3-methoxy-4-phenyl-1H-pyrazol-1-yl)pyrazolo[1,5-a]pyrimidin-7-yl)morpholine] cannot be ordered by IC50: greater than 10000 nM for the first, greater than 10000 nM for the second.

Compared with Cc1cccc(-c2ccn(-c3cc(N4CCOCC4)n4nc(-c5cccnc5)cc4n3)n2)c1 [Compound 79], C=Cc1cc2nc(-n3ccc(-c4ccccc4)n3)cc(N3CCOCC3)n2n1 [Compound 143, 4-(5-(3-phenyl-1H-pyrazol-1-yl)-2-vinylpyrazolo[1,5-a]pyrimidin-7-yl)morpholine] is higher in IC50: less than 10 nM for the first, 100 to 1000 nM for the second.

Fc1cccc(Oc2ncccc2-c2cc(N3CCOCC3)n3nc(-c4ccncc4)cc3n2)c1 [Compound 137, 4-(5-(2-(3-fluorophenoxy)pyridin-3-yl)-2-(pyridin-4-yl)pyrazolo[1,5-a]pyrimidin-7-yl)morpholine] and Fc1ccc(Oc2ncccc2-c2cc(N3CCOCC3)n3nc(-c4ccncc4)cc3n2)cc1 [Compound 138, 4-(5-(2-(4-fluorophenoxy)pyridin-3-yl)-2-(pyridin-4-yl)pyrazolo[1,5-a]pyrimidin-7-yl)morpholine] fall in the same range of IC50: 100 to 1000 nM for the first, 100 to 1000 nM for the second.

Fc1cccc(-c2nccc(-c3cc(N4CCOCC4)n4nc(-c5ccncc5)cc4n3)n2)c1 [Compound 139, 4-(5-(2-(3-fluorophenyl)pyrimidin-4-yl)-2-(pyridin-4-yl)pyrazolo[1,5-a]pyrimidin-7-yl)morpholine] and c1ccc(Cc2nccc(-c3cc(N4CCOCC4)n4nc(-c5ccncc5)cc4n3)n2)cc1 [Compound 140, 4-(5-(2-benzylpyrimidin-4-yl)-2-(pyridin-4-yl)pyrazolo[1,5-a]pyrimidin-7-yl)morpholine] fall in the same range of IC50: 100 to 1000 nM for the first, 100 to 1000 nM for the second.

First: OCC(O)c1cc2nc(-n3ccc(-c4ccccc4)n3)cc(N3CCOCC3)n2n1 (stereo not shown) [Compound 144, 1-(7-morpholino-5-(3-phenyl-1H-pyrazol-1-yl)pyrazolo[1,5-a]pyrimidin-2-yl)ethane-1,2-diol]
Second: c1ccc(-n2nccc2-c2cc(N3CCOCC3)n3nc(-c4ccncc4)cc3n2)cc1 [Compound 146, 4-(5-(1-phenyl-1H-pyrazol-5-yl)-2-(pyridin-4-yl)pyrazolo[1,5-a]pyrimidin-7-yl)morpholine]
The IC50 of the first is lower: 10 to 100 nM for the first, 100 to 1000 nM for the second.

Same assay, conditions: numeric values

Compared with c1ccc(Oc2nccc(-c3cc(N4CCOCC4)n4nc(-c5ccncc5)cc4n3)n2)cc1 [Compound 141, 4-(5-(2-phenoxypyrimidin-4-yl)-2-(pyridin-4-yl)pyrazolo[1,5-a]pyrimidin-7-yl)morpholine], Fc1cccc(-c2ccnn2-c2cc(N3CCOCC3)n3nc(-c4ccncc4)cc3n2)c1 [Compound 147, 4-(5-(5-(3-fluorophenyl)-1H-pyrazol-1-yl)-2-(pyridin-4-yl)pyrazolo[1,5-a]pyrimidin-7-yl)morpholine] is 1.6-fold higher in IC50: 1000 nM for the first, 1570 nM for the second.
